Measurements reported in PubChem BioAssay AID651829 (Broad Institute, 2012).
Activity calls are given as the source filed them.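 Rule for the calls: active = max delta Tm melting temperature shift above 1 degree C at some tested dose; inactive = the rest.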

Target: Kelch-like ECH-associated protein 1 (Homo sapiens) (UniProt Q14145)
Experiment: Keap1 Kelch domain binders by melting shift, dose response, orthogonal assay for Keap1-Nrf2 interaction inhibitor project, biophysical, thermal shift, RT-PCR instrument, dry powder (AID 651829)
Conditions: Recombinant Keap1 Kelch domain, Sypro Orange, top dose 38 µM, hits give high values

Chain of Kelch-like ECH-associated protein 1 (Homo sapiens) (Q14145 whole entry, looked up, the tested form may be a part): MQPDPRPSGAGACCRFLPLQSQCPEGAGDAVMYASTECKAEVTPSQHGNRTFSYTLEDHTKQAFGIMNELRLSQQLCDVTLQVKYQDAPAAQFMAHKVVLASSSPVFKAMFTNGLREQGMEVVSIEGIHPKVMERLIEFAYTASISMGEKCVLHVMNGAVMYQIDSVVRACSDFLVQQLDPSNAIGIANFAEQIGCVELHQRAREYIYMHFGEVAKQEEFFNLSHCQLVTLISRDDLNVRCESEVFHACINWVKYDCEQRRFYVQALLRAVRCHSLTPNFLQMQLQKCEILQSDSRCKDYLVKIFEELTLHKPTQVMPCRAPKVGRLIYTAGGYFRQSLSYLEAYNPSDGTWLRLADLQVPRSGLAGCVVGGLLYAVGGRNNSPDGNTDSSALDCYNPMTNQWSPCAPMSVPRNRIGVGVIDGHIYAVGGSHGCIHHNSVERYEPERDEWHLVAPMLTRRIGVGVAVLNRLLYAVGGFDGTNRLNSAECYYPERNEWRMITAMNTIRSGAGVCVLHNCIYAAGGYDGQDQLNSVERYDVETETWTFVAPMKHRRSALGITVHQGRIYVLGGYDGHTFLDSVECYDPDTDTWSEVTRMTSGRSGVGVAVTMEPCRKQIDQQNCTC

| max delta Tm (at 38 µM) [degrees C] | also measured | Structure (SMILES) |
| --- | --- | --- |
| – | max delta Tm (at 0.16 µM): 0.147 °C (inactive) | Cc1cc(C)c(S(=O)(=O)Nc2nc(NCCO)nc3ccccc23)c(C)c1 |
| 1.86 | – | O=C(O)[C@H]1C2C=CC(C2)[C@H]1C(=O)N1CCc2ccccc2C1CN1C(=O)c2ccccc2C1=O (some centres undefined) |
| 2.21 | – | O=C(O)[C@@H]1CCCN1C(=O)N1CCc2ccccc2[C@H]1CN1C(=O)c2ccccc2C1=O |
| – | max delta Tm (at 2.6 µM): 0.138 °C (inactive) | O=C(O)C1CCCCC1C(=O)Nc1ccccc1CN1C(=O)c2ccccc2C1=O (centres undefined) |
